Experiments:
[1] = system: high-risk patients diagnosed with primary osteoporosis; experiment: Working Example 2: worsening vertebral fractures; assay type: in vivo, human; conditions: 200 units weekly, FAS
From the text: The vertebral fractures in the present invention also include both new fractures and worsening fractures. […] New and worsening [fractures] can be classified by the grade increase pattern according to the criteria of Genant. Concretely speaking, a fracture is diagnosed as a new fracture when a change is found from grade 0 to grade 1, 2, or 3. It can be regarded as a worsening fracture when a change is found from grade 1 to grade 2 or 3 or from grade 2 to grade 3. The vertebral height was measured according to the method of Inoue et al. (Non-patent reference 35) and the method of Hayashi et al. (Non-patent Reference 36) to accurately assess the changes in grade.
The incidence of bone fractures was checked by frontal and lateral x-rays of the fourth thoracic to the fourth lumbar spine taken at the start and every 24 weeks thereafter.
The efficacy of the test drug on worsening bone fractures was studied.

[2] = system: high-risk patients diagnosed with primary osteoporosis; experiment: Working Example 2: bone density of lumbar spine and femur by DXA; assay type: in vivo, human; conditions: 200 units weekly; for Change in bone density (%), lumbar spine / Change in bone density (%), neck of femur / Change in bone density (%), proximal femur: patients taking glucocorticoid
Experimental: For the bone density of the femur, only the left side of the proximal part of the femur, rotated 20°, was measured at the start and every 24 weeks thereafter using dual-energy x-ray absorptiometry (DXA).

[3] = in vivo
Experimental: The Lumbar spine bone mineral density and occurrence of bone fractures were checked as bone assessments. For the Lumbar spine bone mineral density, the bone density of the second to fourth lumbar spine was measured at the start and every six months thereafter using dual-energy x-ray absorptiometry (DXA). For the frequency of bone fractures, x-rays were taken from the front and side of the fourth thoracic to the fifth lumbar spine at the start and every six months thereafter, and new vertebral fractures were assessed by comparison of the roentgen films at the start and at each point in time thereafter using the method of Genant et al. (Non-patent Reference 14) as a reference. In locations other than the vertebrae, fractures were evaluated by checking by roentgen films. Blood samples were also taken from all patients at the beginning and during administration, and the general laboratory test values, including the calcium concentration, were measured. The administration period in high-risk patients (DXA and new vertebral fractures were assessed collectively at the center; fractures of other than vertebrae were assessed by the investigator based on the roentgen films) was 85.1±20.8 weeks in the 5 unit group and 83.7±19.8 weeks in the 100 unit group. […] The administration period in low-risk patients was 72.7±19.4 weeks in the 5 unit group and 88.3±21.3 weeks in the 100 unit group.

[4] = in vivo; remark: listed apart in the source
Experimental: The serum calcium was measured at the start, after 12 weeks, after 24 weeks, after 48 weeks, and after 72 weeks. Serum calcium standard value: 8.4 to 10.4 mg/dL. The standard concomitant drug (610 mg of calcium, 400 IU of vitamin D3, and 30 mg of magnesium) was taken once a day after dinner from the time of consent to the end of the trial.

[5] = in vivo; remark: listed apart in the source
Experimental: The ratio of the urinary calcium value/urinary creatine value was compared before beginning administration and in the weeks of observation. The urinary calcium was measured at the start, after 12 weeks, after 24 weeks, after 48 weeks, and after 72 weeks.

[6] = system: osteoporosis patients having normal renal function, mild or moderate renal dysfunction; conditions: in vivo
From the text: The incidence of adverse events was studied after administering the test drug to the a group of osteoporosis patients having normal renal function, a group of osteoporosis patients having mild renal dysfunction, and a group of osteoporosis patients having moderate renal dysfunction.

[7] = system: osteoporosis patients having normal renal function, mild or moderate renal dysfunction; conditions: in vivo; remark: listed apart in the source
[8] = history of calcium L-aspartate, 24 W
[9] = history of calcium L-aspartate, 48 W
[10] = history of calcium L-aspartate, 72 W
[11] = history of calcium lactate, 24 W
[12] = history of calcium lactate, 48 W
[13] = history of calcium lactate, 72 W
[14] = history of raloxifene hydrochloride, 24 W
[15] = history of raloxifene hydrochloride, 48 W
[16] = history of raloxifene hydrochloride, 72 W
[17] = mild impairment (≧50-<80), after 24 W
[18] = mild impairment (≧50-<80), after 48 W
[19] = mild impairment (≧50-<80), final
[20] = moderate impairment (<50), after 24 W
[21] = moderate impairment (<50), after 48 W
[22] = moderate impairment (<50), after 72 W
[23] = moderate impairment (<50), final

Substance: teriparatide acetate
- Difference between test drug group and control group after 72 W (%), incidence of worsening fractures [1]: 1.8%
- Worsening fractures: No. with fractures [1]: 1
- Incidence of worsening fractures (%) ([1]; after 24 W): 0.4%
- Incidence of worsening fractures (%) ([1]; after 48 W): 0.4%
- Incidence of worsening fractures (%) ([1]; after 72 W): 0.4%
- Percentage change in bone density (%), lumbar spine ([2]; history of Alfacalcidol, 24 W): 3.11%
- Percentage change in bone density (%), neck of femur ([2]; history of Alfacalcidol, 24 W): 1.64%
- Percentage change in bone density (%), proximal femur ([2]; history of Alfacalcidol, 24 W): 2.77%
- Percentage change in bone density (%), lumbar spine ([2]; history of Alfacalcidol, 48 W): 5.47%
- Percentage change in bone density (%), neck of femur ([2]; history of Alfacalcidol, 48 W): 0.85%
- Percentage change in bone density (%), proximal femur ([2]; history of Alfacalcidol, 48 W): 2.31%
- Percentage change in bone density (%), lumbar spine ([2]; history of Alfacalcidol, 72 W): 6.47%
- Percentage change in bone density (%), neck of femur ([2]; history of Alfacalcidol, 72 W): 2.19%
- Percentage change in bone density (%), proximal femur ([2]; history of Alfacalcidol, 72 W): 2.31%
- Percentage change in bone density (%), lumbar spine ([2]; history of calcitriol, 24 W): 3.50%
- Percentage change in bone density (%), neck of femur ([2]; history of calcitriol, 24 W): −0.60%
- Percentage change in bone density (%), proximal femur ([2]; history of calcitriol, 24 W): −1.40%
- Percentage change in bone density (%), lumbar spine ([2]; history of calcitriol, 48 W): 4.40%
- Percentage change in bone density (%), neck of femur ([2]; history of calcitriol, 48 W): −4.03%
- Percentage change in bone density (%), proximal femur ([2]; history of calcitriol, 48 W): −1.05%
- Percentage change in bone density (%), lumbar spine ([2]; history of calcitriol, 72 W): 6.38%
- Percentage change in bone density (%), neck of femur ([2]; history of calcitriol, 72 W): −3.53%
- Percentage change in bone density (%), proximal femur ([2]; history of calcitriol, 72 W): −0.04%
- Percentage change in bone density (%), lumbar spine [2, 8]: 3.78%
- Percentage change in bone density (%), neck of femur [2, 8]: 1.44%
- Percentage change in bone density (%), proximal femur [2, 8]: 1.76%
- Percentage change in bone density (%), lumbar spine [2, 9]: 6.16%
- Percentage change in bone density (%), neck of femur [2, 9]: 1.88%
- Percentage change in bone density (%), proximal femur [2, 9]: 2.28%
- Percentage change in bone density (%), lumbar spine [2, 10]: 5.85%
- Percentage change in bone density (%), neck of femur [2, 10]: 4.17%
- Percentage change in bone density (%), proximal femur [2, 10]: 3.69%
- Percentage change in bone density (%), lumbar spine [2, 11]: 1.96%
- Percentage change in bone density (%), neck of femur [2, 11]: 0.30%
- Percentage change in bone density (%), proximal femur [2, 11]: 1.78%
- Percentage change in bone density (%), lumbar spine [2, 12]: 3.45%
- Percentage change in bone density (%), neck of femur [2, 12]: −4.35%
- Percentage change in bone density (%), proximal femur [2, 12]: −1.68%
- Percentage change in bone density (%), lumbar spine [2, 13]: 4.93%
- Percentage change in bone density (%), neck of femur [2, 13]: −2.53%
- Percentage change in bone density (%), proximal femur [2, 13]: −3.20%
- Percentage change in bone density (%), lumbar spine ([2]; history of elcatonin, 24 W): 3.95%
- Percentage change in bone density (%), neck of femur ([2]; history of elcatonin, 24 W): 1.62%
- Percentage change in bone density (%), proximal femur ([2]; history of elcatonin, 24 W): 3.86%
- Percentage change in bone density (%), lumbar spine ([2]; history of elcatonin, 48 W): 3.59%
- Percentage change in bone density (%), neck of femur ([2]; history of elcatonin, 48 W): 0.72%
- Percentage change in bone density (%), proximal femur ([2]; history of elcatonin, 48 W): 3.44%
- Percentage change in bone density (%), lumbar spine ([2]; history of elcatonin, 72 W): 5.36%
- Percentage change in bone density (%), neck of femur ([2]; history of elcatonin, 72 W): 3.15%
- Percentage change in bone density (%), proximal femur ([2]; history of elcatonin, 72 W): 4.41%
- Percentage change in bone density (%), lumbar spine ([2]; history of menatetrenone, 24 W): 2.70%
- Percentage change in bone density (%), neck of femur ([2]; history of menatetrenone, 24 W): 0.72%
- Percentage change in bone density (%), proximal femur ([2]; history of menatetrenone, 24 W): 0.60%
- Percentage change in bone density (%), lumbar spine ([2]; history of menatetrenone, 48 W): 3.04%
- Percentage change in bone density (%), neck of femur ([2]; history of menatetrenone, 48 W): −3.18%
- Percentage change in bone density (%), proximal femur ([2]; history of menatetrenone, 48 W): −0.56%
- Percentage change in bone density (%), lumbar spine ([2]; history of menatetrenone, 72 W): 4.32%
- Percentage change in bone density (%), neck of femur ([2]; history of menatetrenone, 72 W): −0.78%
- Percentage change in bone density (%), proximal femur ([2]; history of menatetrenone, 72 W): −1.40%
- Percentage change in bone density (%), lumbar spine [2, 14]: 1.77%
- Percentage change in bone density (%), neck of femur [2, 14]: 0.21%
- Percentage change in bone density (%), proximal femur [2, 14]: 2.44%
- Percentage change in bone density (%), lumbar spine [2, 15]: 4.96%
- Percentage change in bone density (%), neck of femur [2, 15]: 1.03%
- Percentage change in bone density (%), proximal femur [2, 15]: 2.26%
- Percentage change in bone density (%), lumbar spine [2, 16]: 4.59%
- Percentage change in bone density (%), neck of femur [2, 16]: −0.51%
- Percentage change in bone density (%), proximal femur [2, 16]: 3.03%
- Change in lumbar vertebral density (%), mean [2, 17]: 3.9%
- Change in lumbar vertebral density (%), median [2, 17]: 3.7%
- Change in lumbar vertebral density (%), mean [2, 18]: 6.0%
- Change in lumbar vertebral density (%), median [2, 18]: 5.7%
- Change in lumbar vertebral density (%), mean ([2]; mild impairment (≧50-<80), after 72 W): 6.3%
- Change in lumbar vertebral density (%), mean [2, 19]: 5.8%
- Change in lumbar vertebral density (%), median [2, 19]: 5.4%
- Change in lumbar vertebral density (%), mean [2, 20]: 3.7%
- Change in lumbar vertebral density (%), median [2, 20]: 3.5%
- Change in lumbar vertebral density (%), mean [2, 21]: 4.9%
- Change in lumbar vertebral density (%), median [2, 21]: 3.8%
- Change in lumbar vertebral density (%), mean [2, 22]: 6.1%
- Change in lumbar vertebral density (%), median [2, 22]: 6.3%
- Change in lumbar vertebral density (%), mean [2, 23]: 5.6%
- Change in lumbar vertebral density (%), median [2, 23]: 4.9%
- Change in lumbar vertebral density (%), mean ([2]; normal (≧80), after 24 W): 4.3%
- Change in lumbar vertebral density (%), median ([2]; normal (≧80), after 24 W): 5.1%
- Change in lumbar vertebral density (%), mean ([2]; normal (≧80), after 48 W): 5.4%
- Change in lumbar vertebral density (%), median ([2]; normal (≧80), after 48 W): 5.6%
- Change in lumbar vertebral density (%), mean ([2]; normal (≧80), after 72 W): 8.1%
- Change in lumbar vertebral density (%), median ([2]; normal (≧80), final): 5.6%
- Change in bone density (%), lumbar spine ([2]; 24 W): 3.50%
- Change in bone density (%), neck of femur ([2]; 24 W): 2.53%
- Change in bone density (%), proximal femur ([2]; 24 W): 2.46%
- Change in bone density (%), lumbar spine ([2]; 48 W): 5.97%
- Change in bone density (%), neck of femur ([2]; 48 W): 2.79%
- Change in bone density (%), proximal femur ([2]; 48 W): 3.39%
- Change in bone density (%), lumbar spine ([2]; 72 W): 6.82%
- Change in bone density (%), neck of femur ([2]; 72 W): 2.44%
- Change in bone density (%), proximal femur ([2]; 72 W): 3.06%
- Hypercalcemia during the administration period [3]: did not cause hypercalcemia at either dose
- Corrected serum calcium value after administration, maximum [4]: 11.6 mg/dL
- Corrected serum calcium value, range of the average [4]: 9.3 to 9.6 mg/dL
- Corrected serum calcium, Mean [4]: 9.5 mg/dL
- Corrected serum calcium, Median [4]: 9.5 mg/dL
- Manifestation of hypercalcemia or hypercalciuria [4]: No manifestation of hypercalcemia or hypercalciuria was found
- Safety in terms of the serum calcium (corrected serum calcium vs control) [4]: equivalent safety in terms of the serum calcium in all groups
- Average percentage change in the urinary calcium value [5]: 3.2%
- Median percentage change in the urinary calcium value [5]: −14.7%
- Adverse events: point estimate of the difference (PTH200 group vs P group) [6]: 2.0
- Side effects Yes (%) [7]: 36.8%
- Side effects, point estimate of the difference [7]: 29.1
- Side effects: No (%) [7]: 55.1%
- Side effects: No, No. of cases [7]: 27
- Side effects: Yes (%) [7]: 44.9%
- Side effects: Yes, No. of cases [7]: 22

From patent US20120252729A1, “PTH-CONTAINING THERAPEUTIC/PROPHYLACTIC AGENT FOR OSTEOPOROSIS, CHARACTERIZED IN THAT PTH IS ADMINISTERED ONCE A WEEK IN A UNIT DOSE OF 100 TO 200 UNITS” (ASAHI KASEI PHARMA CORPORATION, priority 2009, published 2012)
